From PubChem BioAssay (NCI)
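Growth conditions: 96-well plates. Treatment: test compound, 48 hours, 5 concentrations. Analysis: linear interpolation between bracketing concentrations; unreached endpoints set to highest concentration. TGI denotes the concentration required for complete inhibition of growth.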

Key:
Assay in all cases: growth of human tumour cells (NCI), 48 h
U251 CNS = test system: U251 CNS
CAKI-1 renal = test system: CAKI-1 renal
SF-295 CNS = test system: SF-295 CNS
HT29 colon = test system: HT29 colon
NCI-H23 lung = test system: NCI-H23 lung
KM12 colon = test system: KM12 colon
SK-OV-3 ovarian = test system: SK-OV-3 ovarian
OVCAR-4 ovarian = test system: OVCAR-4 ovarian
MOLT-4 leukemia = test system: MOLT-4 leukemia
SK-MEL-28 melanoma = test system: SK-MEL-28 melanoma
IGROV1 ovarian = test system: IGROV1 ovarian
A498 renal = test system: A498 renal
RPMI-8226 leukemia = test system: RPMI-8226 leukemia
MDA-N = test system: MDA-N
SF-539 CNS = test system: SF-539 CNS

COc1ccc(C2=NOC(N)(c3ccc(OC)cc3)C2)cc1 (stereo not given)
TGI (U251 CNS): > 100 µM
TGI (CAKI-1 renal): > 100 µM
TGI (SF-295 CNS): > 100 µM
TGI (HT29 colon): > 100 µM
TGI (NCI-H23 lung): > 100 µM
TGI (KM12 colon): > 100 µM
TGI (SK-OV-3 ovarian): > 100 µM
TGI (OVCAR-4 ovarian): > 100 µM
TGI (MOLT-4 leukemia): > 100 µM
TGI (SK-MEL-28 melanoma): > 100 µM
TGI (IGROV1 ovarian): > 100 µM
TGI (A498 renal): > 100 µM
TGI (RPMI-8226 leukemia): > 100 µM
TGI (MDA-N): > 100 µM
TGI (SF-539 CNS): > 100 µM

N#Cc1nc(C#N)n(S(=O)(=O)c2ccccc2)c1NS(=O)(=O)c1ccccc1
TGI (U251 CNS): > 100 µM
TGI (CAKI-1 renal): > 57.7 µM
TGI (SF-295 CNS): > 100 µM
TGI (HT29 colon): > 100 µM
TGI (NCI-H23 lung): > 100 µM
TGI (KM12 colon): > 100 µM
TGI (SK-OV-3 ovarian): > 100 µM
TGI (OVCAR-4 ovarian): > 100 µM
TGI (MOLT-4 leukemia): > 100 µM
TGI (SK-MEL-28 melanoma): > 100 µM
TGI (IGROV1 ovarian): > 100 µM
TGI (A498 renal): > 100 µM
TGI (RPMI-8226 leukemia): > 100 µM
TGI (MDA-N): > 100 µM
TGI (SF-539 CNS): > 100 µM

CCOC(=O)C1CCCCN1C(=O)Cc1c[nH]c2ccccc12 (stereo not given)
TGI (U251 CNS): > 100 µM
TGI (CAKI-1 renal): > 100 µM
TGI (SF-295 CNS): > 100 µM
TGI (HT29 colon): > 100 µM
TGI (NCI-H23 lung): > 100 µM
TGI (KM12 colon): > 100 µM
TGI (SK-OV-3 ovarian): > 100 µM
TGI (OVCAR-4 ovarian): > 100 µM
TGI (MOLT-4 leukemia): > 100 µM
TGI (SK-MEL-28 melanoma): > 100 µM
TGI (IGROV1 ovarian): > 100 µM
TGI (A498 renal): > 100 µM
TGI (RPMI-8226 leukemia): 64.7 µM
TGI (MDA-N): > 100 µM
TGI (SF-539 CNS): > 100 µM

Cc1cc2c(cc1C)[n+](=O)c(C(=O)c1ccccc1)c(C(F)(F)F)n2[O-]
TGI (U251 CNS): 16.4 µM
TGI (CAKI-1 renal): 2.42 µM
TGI (SF-295 CNS): 10.6 µM
TGI (HT29 colon): 9.11 µM
TGI (NCI-H23 lung): 6.78 µM
TGI (KM12 colon): 5.1 µM
TGI (SK-OV-3 ovarian): > 28.8 µM
TGI (OVCAR-4 ovarian): 1.71 µM
TGI (MOLT-4 leukemia): > 28.3 µM
TGI (SK-MEL-28 melanoma): 16.4 µM
TGI (IGROV1 ovarian): 4.02 µM
TGI (A498 renal): 13.6 µM
TGI (RPMI-8226 leukemia): 3.6 µM
TGI (MDA-N): 14.2 µM
TGI (SF-539 CNS): > 35.1 µM

O=c1[nH]nc(-c2ccccc2)n1O
TGI (U251 CNS): > 100 µM
TGI (CAKI-1 renal): > 100 µM
TGI (SF-295 CNS): > 100 µM
TGI (HT29 colon): > 100 µM
TGI (NCI-H23 lung): > 100 µM
TGI (KM12 colon): > 100 µM
TGI (SK-OV-3 ovarian): > 100 µM
TGI (OVCAR-4 ovarian): > 100 µM
TGI (MOLT-4 leukemia): > 100 µM
TGI (SK-MEL-28 melanoma): > 100 µM
TGI (IGROV1 ovarian): > 100 µM
TGI (A498 renal): > 100 µM
TGI (RPMI-8226 leukemia): > 100 µM
TGI (MDA-N): > 100 µM
TGI (SF-539 CNS): > 100 µM

COc1ccc(CNc2cc(=O)n(C)c(=O)[nH]2)cc1
TGI (U251 CNS): > 100 µM
TGI (CAKI-1 renal): > 100 µM
TGI (SF-295 CNS): > 100 µM
TGI (HT29 colon): > 100 µM
TGI (NCI-H23 lung): > 100 µM
TGI (KM12 colon): > 100 µM
TGI (SK-OV-3 ovarian): > 100 µM
TGI (OVCAR-4 ovarian): > 100 µM
TGI (MOLT-4 leukemia): > 100 µM
TGI (SK-MEL-28 melanoma): > 100 µM
TGI (IGROV1 ovarian): > 100 µM
TGI (A498 renal): > 100 µM
TGI (RPMI-8226 leukemia): > 100 µM
TGI (MDA-N): > 100 µM
TGI (SF-539 CNS): > 100 µM

CC(C)/C(Cl)=N/OC(=O)Nc1ccc(Cl)c(Cl)c1
TGI (U251 CNS): 43.8 µM
TGI (CAKI-1 renal): 3.17 µM
TGI (SF-295 CNS): 32.2 µM
TGI (HT29 colon): 13 µM
TGI (NCI-H23 lung): 29.5 µM
TGI (KM12 colon): 32.6 µM
TGI (SK-OV-3 ovarian): 30.7 µM
TGI (OVCAR-4 ovarian): 22.5 µM
TGI (MOLT-4 leukemia): 6.2 µM
TGI (SK-MEL-28 melanoma): 8.5 µM
TGI (IGROV1 ovarian): 26.4 µM
TGI (A498 renal): 33.5 µM
TGI (RPMI-8226 leukemia): 6.92 µM
TGI (MDA-N): 10.8 µM
TGI (SF-539 CNS): 28.9 µM

CN(CCCNC(=O)c1cc(-c2ccccc2)nc2ccccc12)CCCNC(=O)c1cc(-c2ccccc2)nc2ccccc12
TGI (U251 CNS): 4.05 µM
TGI (CAKI-1 renal): 22.7 µM
TGI (SF-295 CNS): 3.31 µM
TGI (HT29 colon): 3.46 µM
TGI (NCI-H23 lung): 16.1 µM
TGI (KM12 colon): 4.75 µM
TGI (SK-OV-3 ovarian): 26.2 µM
TGI (OVCAR-4 ovarian): 11.3 µM
TGI (MOLT-4 leukemia): 5.33 µM
TGI (SK-MEL-28 melanoma): 3.27 µM
TGI (IGROV1 ovarian): 13.7 µM
TGI (A498 renal): 10.1 µM
TGI (RPMI-8226 leukemia): 10.6 µM
TGI (MDA-N): 3.28 µM
TGI (SF-539 CNS): 4.67 µM

COC(=O)C1CCC(=O)N1C(c1ccc2c(c1)OCO2)c1cc(OC)c(OC)c(OC)c1 (stereo not given)
TGI (U251 CNS): > 100 µM
TGI (CAKI-1 renal): > 100 µM
TGI (SF-295 CNS): > 100 µM
TGI (HT29 colon): > 100 µM
TGI (NCI-H23 lung): > 100 µM
TGI (KM12 colon): > 100 µM
TGI (SK-OV-3 ovarian): > 100 µM
TGI (OVCAR-4 ovarian): > 100 µM
TGI (MOLT-4 leukemia): > 100 µM
TGI (SK-MEL-28 melanoma): > 100 µM
TGI (IGROV1 ovarian): > 100 µM
TGI (A498 renal): > 100 µM
TGI (RPMI-8226 leukemia): > 100 µM
TGI (MDA-N): > 100 µM
TGI (SF-539 CNS): > 100 µM

NC(Cc1ccc(S(=O)(=O)O)cc1)C(=O)NC(Cc1ccc(S(=O)(=O)O)cc1)C(=O)NC(Cc1ccc(S(=O)(=O)O)cc1)C(=O)NC(Cc1ccc(S(=O)(=O)O)cc1)C(=O)O (stereo not given)
TGI (U251 CNS): > 100 µM
TGI (CAKI-1 renal): > 100 µM
TGI (SF-295 CNS): > 100 µM
TGI (HT29 colon): > 100 µM
TGI (NCI-H23 lung): > 100 µM
TGI (KM12 colon): > 100 µM
TGI (SK-OV-3 ovarian): > 100 µM
TGI (OVCAR-4 ovarian): > 100 µM
TGI (MOLT-4 leukemia): > 100 µM
TGI (SK-MEL-28 melanoma): > 100 µM
TGI (IGROV1 ovarian): > 100 µM
TGI (A498 renal): > 100 µM
TGI (RPMI-8226 leukemia): > 100 µM
TGI (MDA-N): > 100 µM
TGI (SF-539 CNS): > 100 µM
